Results published in patent US7704971B2, “Uracil reductase inactivators” (SmithKlineBeecham Corporation, priority 1990, dated 2010).

Key:
uracil reductase [1] = biological target: T1, uracil reductase (Rattus norvegicus, UniProt O89000); assay: Inactivation of uracil reductase in vivo (plasma uracil and thymine), rats
T1 construct: from tissue; host or cells: whole animal (rat), endogenous enzyme
T1 sequence (O89000 1-1025): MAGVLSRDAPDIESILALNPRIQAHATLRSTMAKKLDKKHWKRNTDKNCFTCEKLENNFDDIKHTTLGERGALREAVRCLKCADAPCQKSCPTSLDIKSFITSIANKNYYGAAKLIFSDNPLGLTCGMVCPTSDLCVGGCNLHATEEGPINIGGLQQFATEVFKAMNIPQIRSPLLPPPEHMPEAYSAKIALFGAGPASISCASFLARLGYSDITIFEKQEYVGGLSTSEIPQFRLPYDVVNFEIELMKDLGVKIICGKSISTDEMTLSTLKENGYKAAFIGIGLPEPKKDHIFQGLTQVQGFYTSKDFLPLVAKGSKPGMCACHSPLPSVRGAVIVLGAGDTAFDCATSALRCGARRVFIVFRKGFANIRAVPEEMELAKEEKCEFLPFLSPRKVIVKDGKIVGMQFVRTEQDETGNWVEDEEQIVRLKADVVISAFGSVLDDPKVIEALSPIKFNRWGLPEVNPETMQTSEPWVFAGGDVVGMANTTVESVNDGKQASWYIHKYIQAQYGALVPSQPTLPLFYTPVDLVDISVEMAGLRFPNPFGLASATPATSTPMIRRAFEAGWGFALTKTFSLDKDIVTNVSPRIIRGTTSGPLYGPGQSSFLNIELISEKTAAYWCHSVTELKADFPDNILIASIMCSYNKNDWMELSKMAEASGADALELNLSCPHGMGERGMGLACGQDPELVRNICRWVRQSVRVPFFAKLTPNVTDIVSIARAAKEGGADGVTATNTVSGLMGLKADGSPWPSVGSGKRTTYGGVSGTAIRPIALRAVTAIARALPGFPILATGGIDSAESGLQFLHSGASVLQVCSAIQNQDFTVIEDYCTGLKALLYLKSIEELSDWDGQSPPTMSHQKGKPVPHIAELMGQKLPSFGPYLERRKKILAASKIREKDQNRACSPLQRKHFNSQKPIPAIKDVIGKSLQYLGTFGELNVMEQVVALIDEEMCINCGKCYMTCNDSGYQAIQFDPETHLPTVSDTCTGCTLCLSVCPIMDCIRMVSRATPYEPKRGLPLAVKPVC
Experimental: (§1) The maximum effect occurred at about 0.1 mg/kg p.o. in rats, at 0.5 to 1 mg/kg s.c. in mice, and at approximately 1 mg/kg intravenously (i.v.) in dogs and probably represents total inactivation of uracil reductase. These doses elevated mouse, dog, and rat plasma uracil from about 3 uM to about 50-60 uM. […] The ED50 equals 0.01 mg/kg.

uracil reductase [2] = biological target: T2, uracil reductase (Mus musculus, UniProt Q8CHR6); assay: Inactivation of uracil reductase in vivo (plasma uracil and thymine), mice
T2 construct: from tissue; host or cells: whole animal (mouse), endogenous enzyme
T2 sequence (Q8CHR6 1-1025): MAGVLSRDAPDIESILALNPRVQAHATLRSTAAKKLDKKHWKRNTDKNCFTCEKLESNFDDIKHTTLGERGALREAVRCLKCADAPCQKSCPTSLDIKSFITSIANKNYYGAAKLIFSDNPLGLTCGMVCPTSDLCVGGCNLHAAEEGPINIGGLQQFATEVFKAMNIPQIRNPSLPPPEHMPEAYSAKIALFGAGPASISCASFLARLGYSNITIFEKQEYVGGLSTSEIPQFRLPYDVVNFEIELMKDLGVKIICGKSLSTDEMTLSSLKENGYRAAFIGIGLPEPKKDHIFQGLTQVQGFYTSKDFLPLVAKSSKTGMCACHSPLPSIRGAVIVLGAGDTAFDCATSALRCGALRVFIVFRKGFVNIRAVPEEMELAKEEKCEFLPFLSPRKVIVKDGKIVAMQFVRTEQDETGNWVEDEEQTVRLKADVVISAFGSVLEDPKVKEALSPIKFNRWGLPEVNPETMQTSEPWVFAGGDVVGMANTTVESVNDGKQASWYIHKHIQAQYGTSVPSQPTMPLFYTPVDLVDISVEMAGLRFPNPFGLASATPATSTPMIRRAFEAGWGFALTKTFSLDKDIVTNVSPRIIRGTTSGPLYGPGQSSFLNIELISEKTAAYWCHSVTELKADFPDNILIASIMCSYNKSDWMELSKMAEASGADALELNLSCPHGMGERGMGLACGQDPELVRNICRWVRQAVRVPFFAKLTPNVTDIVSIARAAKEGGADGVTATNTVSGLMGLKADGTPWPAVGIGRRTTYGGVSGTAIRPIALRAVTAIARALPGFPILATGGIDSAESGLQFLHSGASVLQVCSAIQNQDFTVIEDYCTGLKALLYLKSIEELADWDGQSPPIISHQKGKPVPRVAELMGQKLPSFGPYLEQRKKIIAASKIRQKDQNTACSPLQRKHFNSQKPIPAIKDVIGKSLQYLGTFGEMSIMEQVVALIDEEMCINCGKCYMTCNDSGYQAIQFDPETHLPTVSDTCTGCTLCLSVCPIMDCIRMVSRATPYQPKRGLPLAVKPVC
Experimental: as §1

uracil reductase [3] = assay: Inactivation of uracil reductase in vivo (plasma uracil and thymine), dogs
Experimental: as §1

uracil reductase [4] = assay: Inactivation of uracil reductase in vivo (plasma uracil and thymine), monkeys; conditions: monkeys dosed with small amounts
Experimental: as §1

[5] = Effect on plasma FU level, mice; type: in vivo; conditions: 5-FU p.o. or i.p., EU 2 mg/kg i.p. 90 minutes prior to 5-FU
Experimental: Mice were dosed either orally (p.o.) or interperitoneally (i.p.) with 5-fU. 5-ethynyluracil (EU) at 2mg/kg was dosed i.p. 90 minutes prior to the 5-FU.
In addition, the usual variability in plasma FU in rats orally dosed with FU at 50 mg/kg was eliminated by EU pretreatment.

## C#Cc1c[nH]c(=O)[nH]c1=O [5-ethynyluracil]
Uracil reductase [1]; rat, at dose of maximum effect, elevated from about 3 uM
  plasma uracil: 50 to 60 µM
Uracil reductase [1]; rat, oral doses, 4 hours after dosing, read-out: ED50 (increased plasma levels of uracil and thymine)
  ED50: 0.01 mg/kg
Uracil reductase [1]; rats, p.o.
  dose at which the maximum effect on plasma uracil and thymine occurred: about 0.1 mg/kg
Uracil reductase [2]; mice, s.c.
  dose at which the maximum effect on plasma uracil and thymine occurred: 0.5 to 1 mg/kg
Uracil reductase [2]; mouse, at dose of maximum effect, elevated from about 3 uM
  plasma uracil: 50 to 60 µM
Uracil reductase [3]; dog, at dose of maximum effect, elevated from about 3 uM
  plasma uracil: 50 to 60 µM
Uracil reductase [3]; dogs, intravenously (i.v.)
  dose at which the maximum effect on plasma uracil and thymine occurred: approximately 1 mg/kg
Uracil reductase [4]
  plasma uracil and thymine levels: greatly elevated
[5]
  plasma levels of 5-fluorouracil: increased
